Measurements as given in the NIST ThermoML archive (doi:10.1021/je300388b).

Experiment: xn = mol fraction of the nth substance listed
Conditions: Liquid

CCCCCCCCCC [decane] + O=C=O
Conditions | mass density [kg/m3]
303.04 K, 8020 kPa, x2 = 0.869 | 798.45
303.15 K, 9990 kPa, x2 = 0.4698 | 756.27
303.15 K, 11990 kPa, x2 = 0.4698 | 758.43
303.15 K, 14000 kPa, x2 = 0.4698 | 760.53
303.15 K, 15980 kPa, x2 = 0.4698 | 762.54
303.15 K, 17990 kPa, x2 = 0.4698 | 764.51
303.15 K, 19010 kPa, x2 = 0.2361 | 748.64
303.15 K, 19010 kPa, x2 = 0.4698 | 765.49
303.16 K, 7980 kPa, x2 = 0.2361 | 740.1
303.16 K, 8020 kPa, x2 = 0.4698 | 754.05
303.16 K, 9970 kPa, x2 = 0.2361 | 741.73
303.16 K, 12020 kPa, x2 = 0.2361 | 743.35
303.16 K, 16020 kPa, x2 = 0.2361 | 746.43
303.17 K, 14020 kPa, x2 = 0.2361 | 744.91
303.17 K, 18020 kPa, x2 = 0.2361 | 747.92
303.31 K, 10030 kPa, x2 = 0.869 | 807.43
303.31 K, 14030 kPa, x2 = 0.869 | 824.12
303.31 K, 18050 kPa, x2 = 0.869 | 837.96
303.36 K, 12020 kPa, x2 = 0.869 | 816.02
303.37 K, 16020 kPa, x2 = 0.869 | 831.09
313 K, 7980 kPa, x2 = 0.71 | 763.24
313 K, 9940 kPa, x2 = 0.71 | 767.44
313 K, 13970 kPa, x2 = 0.71 | 775.3
313.01 K, 11690 kPa, x2 = 0.71 | 770.91
313.01 K, 18020 kPa, x2 = 0.71 | 782.43
313.03 K, 16020 kPa, x2 = 0.71 | 778.96
313.06 K, 13970 kPa, x2 = 0.4698 | 750.5
313.07 K, 15990 kPa, x2 = 0.4698 | 752.76
313.09 K, 17990 kPa, x2 = 0.4698 | 754.91
313.09 K, 19000 kPa, x2 = 0.4698 | 755.97
313.1 K, 8010 kPa, x2 = 0.4698 | 743.23
313.11 K, 11990 kPa, x2 = 0.4698 | 748.15
313.12 K, 10010 kPa, x2 = 0.4698 | 745.74
313.13 K, 16010 kPa, x2 = 0.2361 | 738.82
313.13 K, 18010 kPa, x2 = 0.2361 | 740.41
313.14 K, 10010 kPa, x2 = 0.2361 | 733.81
313.14 K, 19020 kPa, x2 = 0.2361 | 741.18
313.15 K, 7990 kPa, x2 = 0.2361 | 732.05
313.15 K, 14010 kPa, x2 = 0.2361 | 737.19
313.16 K, 12000 kPa, x2 = 0.2361 | 735.5
313.23 K, 18020 kPa, x2 = 0.869 | 812.48
313.27 K, 10000 kPa, x2 = 0.869 | 776.26
313.31 K, 14000 kPa, x2 = 0.869 | 796.68
313.33 K, 12000 kPa, x2 = 0.869 | 787.12
313.36 K, 7990 kPa, x2 = 0.869 | 762.46
313.37 K, 16040 kPa, x2 = 0.869 | 804.9
323.02 K, 8000 kPa, x2 = 0.71 | 747.45
323.02 K, 18230 kPa, x2 = 0.71 | 769.63
323.09 K, 14030 kPa, x2 = 0.71 | 761.43
323.11 K, 16040 kPa, x2 = 0.71 | 765.46
323.12 K, 9940 kPa, x2 = 0.71 | 752.26
323.13 K, 18030 kPa, x2 = 0.2361 | 732.88
323.15 K, 8010 kPa, x2 = 0.4698 | 732.04
323.15 K, 9980 kPa, x2 = 0.4698 | 734.86
323.15 K, 11970 kPa, x2 = 0.71 | 756.86
323.15 K, 12030 kPa, x2 = 0.2361 | 727.66
323.15 K, 16020 kPa, x2 = 0.2361 | 731.17
323.15 K, 18000 kPa, x2 = 0.4698 | 745.11
323.15 K, 19000 kPa, x2 = 0.4698 | 746.27
323.15 K, 19020 kPa, x2 = 0.2361 | 733.69
323.16 K, 14030 kPa, x2 = 0.2361 | 729.45
323.17 K, 12020 kPa, x2 = 0.4698 | 737.61
323.17 K, 15980 kPa, x2 = 0.4698 | 742.66
323.18 K, 8030 kPa, x2 = 0.2361 | 723.85
323.18 K, 9970 kPa, x2 = 0.2361 | 725.74
323.19 K, 13990 kPa, x2 = 0.4698 | 740.16
323.29 K, 16020 kPa, x2 = 0.869 | 778.27
323.3 K, 10010 kPa, x2 = 0.869 | 740.74
323.3 K, 18080 kPa, x2 = 0.869 | 787.62
